The record followed here is paper PMC5099944, “Design, synthesis and biological evaluation of hybrids of β-carboline and salicylic acid as potential anticancer and apoptosis inducing agents” (Scientific Reports, 2016).

pIC50: −log10 of the molar value.

The test system of series [1] is human cancer cells (SMMC-7721, Hep G2, HCT116, EJ, H460). The series is described as follows: MTT assay, summary statements across several human cancer cell lines. Type of series: cell-based. On the procedure: (§1) The in vitro antitumor activities of the synthesized compounds 7a-l and 8a-l against five human cancer cells were evaluated in MTT assays using 5-fluorouracil (5-FU) and harmine as positive controls. These cells are human hepatocellular carcinoma cells (SMMC-7721 and Hep G2), human colon cancer cell lines (HCT116), human bladder carcinoma cells (EJ), and human lung cancer cells (H460).
(§2) Hepatocellular carcinoma cells (SMMC-7721 and Hep G2), Human colon cancer cell lines (HCT116), human bladder carcinoma cells (EJ) or human lung cancer cells (H460) at 10^4 cells per well were cultured in 10% FBS DMEM in 96-well flat-bottom microplates overnight. The cells were incubated in triplicate with, or without, different concentrations of each test compound for 48 h. During the last 4 h incubation, 30 μL of tetrazolium dye (MTT) solution (5 mg mL^−1) was added to each well. The resulting MTT-formazan crystals were dissolved in 150 μL DMSO, and absorbance was measured spectrophotometrically at 570 nm using an ELISA plate reader. The inhibition induced by each test compound at the indicated concentrations was expressed as a percentage. The concentration required for 50% inhibition (IC50) was calculated using the software (GraphPadPrism Version 4.03).
In general terms: Tetrazolium dyes change colour on reduction, which living cells bring about.

Series [2] concerns H460 cells. The series is described as follows: MTT assay, proliferation of H460 cells. The class given is cell-based. The following applies: NCI-H460, 48 h, H460 human lung cancer cells, read-out: In vitro cytotoxicity (IC50) H460. On the procedure: as §1, §2
Series [3] has as its system SMMC-7721 cells. The series is described as follows: MTT assay, proliferation of SMMC-7721 cells. Type of series: cell-based, human. The following applies: Homo sapiens. The procedure: as §1, §2
In series [4] the test system is Hep G2 cells. In words: MTT assay, proliferation of Hep G2 cells. Type of series: cell-based. The note with it: Homo sapiens, HepG2, 48 h, read-out: In vitro cytotoxicity (IC50) Hep G2. The procedure:
as §1, §2

In series [5] the test system is SMMC-7721 cells. The series is described as follows: Flow cytometry assay of cell apoptosis (FITC-Annexin V/PI). Type of series: cell-based, human. The note with it: 48 h. The procedure: To determine whether apoptosis is involved in the anti-proliferative effects of 8h, apoptosis assay was performed using SMMC-7721 cells. The cells were incubated with either vehicle alone, different concentrations of 8h (7.0 or 14 μM), or 14 μM 5-FU for 48 h, and then stained with FITC-Annexin V and propidium iodide (PI). The percentages of apoptotic SMMC-7721 cells were determined by flow cytometry analysis. In the vehicle group, the occurrence of SMMC-7721 cell apoptosis was minimal. […] Low concentration of 8h (7.0 μM) induced 46% SMMC-7721 cell apoptosis, while the higher dose (14 μM) of 8h induced 63% SMMC-7721 cell apoptosis.
Figure 4 Compound 8h induced SMMC-7721 cell apoptosis in vitro. SMMC-7721 cells were incubated with the indicated concentrations of 8h and 14 μM 5-FU for 48 h, and the cells were stained with FITC-Annexin V and PI, followed by flow cytometry analysis. (A) Flow cytometry analysis. (B) Quantitative analysis of apoptotic cells. Data are expressed as means ± SD of the percentages of apoptotic cells from three independent experiments. *P < 0.01 vs control.
SMMC-7721 cells were cultured overnight and incubated in triplicate with compound 8h (7.0 and 14 μM), 5-FU (14 μM), or vehicle for 48 h. The cells were harvested, and stained with FITC-Annexin V and PI (BioVision) at room temperature for 15 min. The percentage of apoptotic cells was determined by flow cytometry (Beckman Coulter) analysis.
Background: A flow cytometer gives signals particle by particle.

Series [6] deals with SMMC-7721 cells. In words: Mitochondrial membrane potential assay (JC-1). Type of series: cell-based, human. The following applies: 14 μM, 48 h (method b112 says 24 h). The procedure: The mitochondrial pathway plays an important role in cell apoptosis. To determine whether mitochondria is involved in the apoptosis-inducing effect of 8h, changes in mitochondrial membrane potential were investigated with a fluorescent probe JC-1. JC-1 is a lipophilic cationic dye which facilitates the penetration of mitochondrial membrane due to the decrease of membrane potential, indicated by a fluorescence shift from red to green. The cells were treated with vehicle alone, with different concentrations of 8h (7.0 or 14 μM), or 14 μM 5-FU for 48 h, and then stained with JC-1. […] The percentage of cells emitting green fluorescence reached 57% at the higher dose of 14 μM. The observations indicate that 8h plays a role in the dissipation of mitochondrial membrane potential and the apoptosis effect of 8h is associated with mitochondrial depolarization in cells.
Mitochondrial membrane potential was assessed using a Beyotime (China) kit with JC-1. Briefly, the SMMC-7721 cells in the logarithmic growth phase were treated with 8h (7.0 or 14 μM), 5-FU (14 μM), or vehicle control for 24 h. The cells were harvested, and then labeled with JC-1 in accordance with the manufacturer’s instructions. The samples labeled with JC-1 were analyzed via flow cytometry. For the detection of JC-1, excitation was set at 530 nm, and emissions collected at 585 nm.

Series [7] has as its system HCT116 cells. In words: MTT assay, proliferation of HCT116 cells. The class given is cell-based. The following applies: Homo sapiens, HCT-116, 48 h, read-out: In vitro cytotoxicity (IC50) HCT116. On the procedure: as §1, §2

On to `Cc1nc(C(=O)NCCCCCNC(=O)c2ccccc2O)cc2c1[nH]c1ccccc12` [8h, N-(5-(2-Hydroxybenzamido)pentyl)-1-methyl-9H-pyrido[3,4-b]indole-3-carboxamide], for which the pIC50 is 5.08 to 5.16 in series [1] (Homo sapiens, SMMC-7721, Hep G2, HCT116, MTT, read-out: IC50 values for liver and colon cancer cells growth (range over cell lines)); 4.88 in series [2]; 5.16 in series [3] (SMMC-7721, 48 h, read-out: In vitro cytotoxicity (IC50) SMMC-7721, MTT assay, 48 h, SMMC-7721 human hepatocellular carcinoma cells); 5.15 in series [4]; 5.08 in series [7]. Besides, the “IC50 fold lower than that of 5-FU” value in series [1] (liver and colon cancer cells) was 4~6 fold. Moreover, the inhibition at 25 µM in series [3] (SMMC-7721, 25 μM, 48 h, MTT assay, read-out: Inhibition of SMMC-7721 cell proliferation) was ~90%. Besides, the “SMMC-7721 cell apoptosis (percentage of apoptotic cells)” value in series [5] (7.0 μM) is 46%; in series [5] (14 μM), 63%. Besides, the “Percentage of cells emitting green fluorescence (JC-1)” value in series [6] was determined as 57%.

What is called pIC50 is the negative decadic logarithm of the IC50, by convention in mol/L.
